In series [1] the test system is per1 gene expression in normal human epidermal keratinocytes (NHEK). Nature of the series: per1 promoter luciferase reporter assay in NHEK. The class given is cell-based. The protocol:
Perl gene expression in normal human epidermal keratinocytes (NHEK) donors was tested in control cells and cells exposed to ozone using the reporter assay. NHEK were plated at a concentration of 3×10^4 in a black walled, 96 well microtiter plate for 3 hours in EpiLife media. The cells were then transfected in supplement free media with a plasmid that contained luciferase as the reporter gene ligated upstream to a per1 promoter element. In addition, transfection was facilitated by addition of Plus and Lipfectamine reagents (Invitrogen, Carlsbad, Calif.). Transfection in supplement free media was carried out for an additional four hours. This “starves” the cells which in turn causes them to be synchronized in their circadian rhythms. After transfection, full media neat and containing ozone was added and incubated for 16 hours. Then a luciferase reagent, Glo-Bright (Promega Corporation, Madison, Wis.) was added and luminescence measures in an Lmax luminometer (Molecular Devices, Sunnyvale, Calif.).
The test was performed again, and in addition, a peptide with per1 gene activity was tested.
In both tests, NHEK were treated at the start of the test (0 hours) so that they were all synchronized with respect to their circadian rhythm, and expressing per1 at the same time. […]

Series [2] relates to PER1 gene expression in skin cells. To be noted: "has been shown", no test described; cited from earlier work.
Series [3] has the same test system. Nature of the series: PER1 gene expression in skin cells. It is filed as cell-based.

Each structure is given as a SMILES string.

In the case of `O=[O+][O-]` [ozone], the per1 gene expression result in series [1] (24 hours, single treatment, compared with untreated cells (FIG. 6)) is “lesser, and about equivalent, expression of PER1”. In series [1] (ozone treated NHEK at 0, 6 and 12 hours, vs untreated cells (FIG. 5)), the per1 activity result is “decrease in per1 activity”.
Regarding `O=C(/C=C/c1ccc(O)c(O)c1)O[C@@H](C(=O)O)[C@@H](OC(=O)/C=C/c1ccc(O)c(O)c1)C(=O)O` [cichoric acid], the “activation of PER / PER1” value in series [2] was “suitable activator of PER and PER1”.
On to `O=C(/C=C/c1ccc(O)c(O)c1)O[C@@H](C(=O)O)[C@@H](O)C(=O)O` [caftaric acid], for which, in series [3], the PER1 gene expression result is on record as “does not increase PER1 gene expression”.

Values taken from patent publication US20180064654A1, “Sheet Packs And Methods For Treating Skin” (ELC Management LLC, priority 2015, published 2018).
